Experimental data reported in PMC5218480 (PLoS ONE, 2017).

System: MV-4-11 cells
Test: Gene expression microarray analysis (Affymetrix PrimeView) and GSEA
Type: cell-based, human
Design: RFU PODN (11730768_x_at) / Fold change /veh PODN (11730768_x_at) / RFU LINC00158 (11744669_a_at) / Fold change /veh LINC00158 (11744669_a_at) / RFU DUSP10 (11751237_a_at) / Fold change /veh DUSP10 (11751237_a_at) / RFU ID3 (11757404_x_at) / Fold change /veh ID3 (11757404_x_at) / RFU PLEKHG5 (11737974_s_at) / Fold change /veh PLEKHG5 (11737974_s_at) / RFU LRRC4B (11730491_at) / Fold change /veh LRRC4B (11730491_at) / RFU GIMAP4 (11747438_a_at) / Fold change /veh GIMAP4 (11747438_a_at) / RFU KRT8 (11758183_x_at) / Fold change /veh KRT8 (11758183_x_at) / RFU CNN1 (11734310_a_at) / Fold change /veh CNN1 (11734310_a_at) / RFU VPS37D (11726825_at) / Fold change /veh VPS37D (11726825_at) / RFU C10orf10 (11716522_x_at) / Fold change /veh C10orf10 (11716522_x_at) / RFU KIR2DL2 /// KIR2DL4 /// KIR2DL5A /// KIR2DL5B /// KIR2DS1 /// KIR2DS2 /// KIR2DS3 /// KIR2DS4 /// KIR3DL3 /// KIR3DL3 /// KIR3DS1 (11738374_at) / Fold change /veh KIR2DL2 /// KIR2DL4 /// KIR2DL5A /// KIR2DL5B /// KIR2DS1 /// KIR2DS2 /// KIR2DS3 /// KIR2DS4 /// KIR3DL3 /// KIR3DL3 /// KIR3DS1 (11738374_at) / RFU C1QL1 (11718748_at) / Fold change /veh C1QL1 (11718748_at) / RFU TMPRSS4 (11747572_a_at) / Fold change /veh TMPRSS4 (11747572_a_at) / RFU HAMP (11756126_x_at) / Fold change /veh HAMP (11756126_x_at) / RFU RNFT2 (11725882_a_at) / Fold change /veh RNFT2 (11725882_a_at) / RFU NR4A2 (11747474_a_at) / Fold change /veh NR4A2 (11747474_a_at) / RFU ABCC12 (11746883_a_at) / Fold change /veh ABCC12 (11746883_a_at) / RFU TMEM136 (11760407_x_at) / Fold change /veh TMEM136 (11760407_x_at) / RFU CLDN22 /// WWC2 (11732394_at) / Fold change /veh CLDN22 /// WWC2 (11732394_at) / RFU HLA-DPB1 (11760878_x_at) / Fold change /veh HLA-DPB1 (11760878_x_at) / RFU SPINT1 (11716480_a_at) / Fold change /veh SPINT1 (11716480_a_at) / RFU GAP43 (11754022_s_at) / Fold change /veh GAP43 (11754022_s_at) / RFU A4GNT (11735810_at) / Fold change /veh A4GNT (11735810_at) / RFU PRB3 (11715151_x_at) / Fold change /veh PRB3 (11715151_x_at) / RFU TUBB4B (11761932_at) / Fold change /veh TUBB4B (11761932_at) / RFU CAPN14 (11732068_a_at) / Fold change /veh CAPN14 (11732068_a_at) / RFU TMCC2 (11721928_a_at) / Fold change /veh TMCC2 (11721928_a_at) / RFU IRGQ (11745062_a_at) / Fold change /veh IRGQ (11745062_a_at) / RFU FAM174B (11720279_a_at) / Fold change /veh FAM174B (11720279_a_at) / RFU TMPRSS4 (11748680_a_at) / Fold change /veh TMPRSS4 (11748680_a_at) / RFU FAM212B (11763350_a_at) / Fold change /veh FAM212B (11763350_a_at) / RFU PLEKHG5 (11743358_a_at) / Fold change /veh PLEKHG5 (11743358_a_at) / RFU ZSCAN30 (11745921_a_at) / Fold change /veh ZSCAN30 (11745921_a_at) / RFU CMKLR1 (11741424_a_at) / Fold change /veh CMKLR1 (11741424_a_at) / RFU LOC101060620 /// MAPK8IP1 (11723275_at) / Fold change /veh LOC101060620 /// MAPK8IP1 (11723275_at) / RFU SPTSSB (11747773_x_at) / Fold change /veh SPTSSB (11747773_x_at) / RFU PRSS12 (11739890_at) / Fold change /veh PRSS12 (11739890_at) / RFU BIN1 (11741810_x_at) / Fold change /veh BIN1 (11741810_x_at) / RFU WNT11 (11732464_a_at) / Fold change /veh WNT11 (11732464_a_at) / RFU C10orf10 (11716521_a_at) / Fold change /veh C10orf10 (11716521_a_at) / RFU C5orf56 (11738089_at) / Fold change /veh C5orf56 (11738089_at) / RFU CYB561 (11721691_x_at) / Fold change /veh CYB561 (11721691_x_at) / RFU ANKRD19P (11752326_a_at) / Fold change /veh ANKRD19P (11752326_a_at) / RFU OR2T12 /// OR2T33 /// OR2T8 (11738714_s_at) / Fold change /veh OR2T12 /// OR2T33 /// OR2T8 (11738714_s_at) / RFU VCAN (11748164_a_at) / Fold change /veh VCAN (11748164_a_at) / RFU JSRP1 (11732532_at) / Fold change /veh JSRP1 (11732532_at) / RFU KRTAP10-11 (11738290_x_at) / Fold change /veh KRTAP10-11 (11738290_x_at) / RFU MYO3A (11730013_a_at) / Fold change /veh MYO3A (11730013_a_at) / RFU EBF3 (11725865_a_at) / Fold change /veh EBF3 (11725865_a_at) / RFU CAMK2N1 (11719241_x_at) / Fold change /veh CAMK2N1 (11719241_x_at) / RFU C5orf56 (11738088_a_at) / Fold change /veh C5orf56 (11738088_a_at) / RFU OLFML3 (11715873_a_at) / Fold change /veh OLFML3 (11715873_a_at) / RFU LOC100653217 /// NTM (11731650_a_at) / Fold change /veh LOC100653217 /// NTM (11731650_a_at) / RFU MAPK11 (11762145_a_at) / Fold change /veh MAPK11 (11762145_a_at) / RFU FIZ1 (11724087_x_at) / Fold change /veh FIZ1 (11724087_x_at) / RFU OASL (11726364_x_at) / Fold change /veh OASL (11726364_x_at) / RFU SOX15 (11748057_x_at) / Fold change /veh SOX15 (11748057_x_at) / RFU CD79A (11719716_a_at) / Fold change /veh CD79A (11719716_a_at) / RFU HIST1H1D (11736915_at) / Fold change /veh HIST1H1D (11736915_at) / RFU CASKIN2 (11723855_a_at) / Fold change /veh CASKIN2 (11723855_a_at) / RFU LOC730098 (11760151_x_at) / Fold change /veh LOC730098 (11760151_x_at) / RFU OR4N2 (11742367_at) / Fold change /veh OR4N2 (11742367_at) / RFU PRRT2 (11749266_a_at) / Fold change /veh PRRT2 (11749266_a_at) / RFU SNX32 (11753110_a_at) / Fold change /veh SNX32 (11753110_a_at) / RFU CDHR5 (11726645_a_at) / Fold change /veh CDHR5 (11726645_a_at) / RFU RCAN1 (11760418_a_at) / Fold change /veh RCAN1 (11760418_a_at) / RFU FAM167A (11723789_a_at) / Fold change /veh FAM167A (11723789_a_at) / RFU FAM26E (11764081_at) / Fold change /veh FAM26E (11764081_at) / RFU ISYNA1 (11749810_s_at) / Fold change /veh ISYNA1 (11749810_s_at) / RFU ACY1 (11761880_at) / Fold change /veh ACY1 (11761880_at) / RFU 11764098_at / Fold change /veh 11764098_at / RFU SAMD14 (11745864_x_at) / Fold change /veh SAMD14 (11745864_x_at) / RFU NPB (11741838_a_at) / Fold change /veh NPB (11741838_a_at) / RFU TMPRSS6 (11731388_a_at) / Fold change /veh TMPRSS6 (11731388_a_at) / RFU KRTAP10-2 (11738614_at) / Fold change /veh KRTAP10-2 (11738614_at) / RFU ARHGAP8 /// PRR5-ARHGAP8 (11727945_x_at) / Fold change /veh ARHGAP8 /// PRR5-ARHGAP8 (11727945_x_at) / RFU KRTAP5-7 /// NADSYN1 (11734609_at) / Fold change /veh KRTAP5-7 /// NADSYN1 (11734609_at) / RFU RASL12 (11751679_a_at) / Fold change /veh RASL12 (11751679_a_at) / RFU CDKN2B (11736163_a_at) / Fold change /veh CDKN2B (11736163_a_at) / RFU PRF1 (11729649_at) / Fold change /veh PRF1 (11729649_at) / RFU, ZNF638 /// ZNF638-IT1 / Fold change vs veh, ZNF638 /// ZNF638-IT1 / RFU, PANK3 / Fold change vs veh, PANK3 / RFU, SH3YL1 / Fold change vs veh, SH3YL1 / RFU, ZEB2 / Fold change vs veh, ZEB2 / RFU, NRIP1 / Fold change vs veh, NRIP1 / RFU, PTTG1IP / Fold change vs veh, PTTG1IP / RFU, CAPN2 / Fold change vs veh, CAPN2 / RFU, MED14 / Fold change vs veh, MED14 / RFU, SNORA58 / Fold change vs veh, SNORA58 / RFU, C1orf63 / Fold change vs veh, C1orf63 / RFU, LRRFIP1 / Fold change vs veh, LRRFIP1 / RFU, NDUFAF7 / Fold change vs veh, NDUFAF7 / RFU, SLC12A2 / Fold change vs veh, SLC12A2 / RFU, IBTK / Fold change vs veh, IBTK / RFU, ESF1 / Fold change vs veh, ESF1 / Fold change vs veh, TMEM50B / RFU, TAOK1 / Fold change vs veh, TAOK1 / RFU, ACBD3 / Fold change vs veh, ACBD3 / RFU, TMA16 / Fold change vs veh, TMA16 / RFU, RWDD3 / Fold change vs veh, RWDD3 / RFU, BCAT1 / Fold change vs veh, BCAT1 / RFU, EDEM3 / Fold change vs veh, EDEM3 / RFU, TMEM33 / Fold change vs veh, TMEM33 / RFU, WDR75 / Fold change vs veh, WDR75 / RFU, AHCTF1 / Fold change vs veh, AHCTF1 / RFU, TFRC / Fold change vs veh, TFRC / RFU, ZDHHC17 / Fold change vs veh, ZDHHC17 / RFU, NOM1 / Fold change vs veh, NOM1 / RFU, ARL8B / Fold change vs veh, ARL8B / RFU, ZBTB11 / Fold change vs veh, ZBTB11 / RFU, TAMM41 / Fold change vs veh, TAMM41 / RFU, KIAA1704 /// LOC100996395 / Fold change vs veh, KIAA1704 /// LOC100996395 / RFU, ING1 / Fold change vs veh, ING1 / RFU, TRMT61B / Fold change vs veh, TRMT61B / RFU, FUBP3 / Fold change vs veh, FUBP3 / RFU, TP53 / Fold change vs veh, TP53 / RFU, TNKS2 / Fold change vs veh, TNKS2 / RFU, ZFP14 / Fold change vs veh, ZFP14 / RFU, ACTR2 / Fold change vs veh, ACTR2 / RFU, PPP3R1 / Fold change vs veh, PPP3R1 / RFU, PIK3R1 / Fold change vs veh, PIK3R1 / RFU, HNRNPA1 / Fold change vs veh, HNRNPA1 / RFU, RNF170 / Fold change vs veh, RNF170 / RFU, ZNF28 / Fold change vs veh, ZNF28 / RFU, RNGTT / Fold change vs veh, RNGTT / RFU, OGT / Fold change vs veh, OGT / RFU, BRD1 / Fold change vs veh, BRD1 / RFU, MARS / Fold change vs veh, MARS / RFU, ZNF655 / Fold change vs veh, ZNF655 / RFU, FAHD1 / Fold change vs veh, FAHD1 / RFU, BDP1 / Fold change vs veh, BDP1 / RFU, LRRCC1 / Fold change vs veh, LRRCC1 / RFU, ARID1A / Fold change vs veh, ARID1A / RFU, ZNF146 / Fold change vs veh, ZNF146 / RFU, ZNF330 / Fold change vs veh, ZNF330 / RFU, GPN3 / Fold change vs veh, GPN3 / RFU, C9orf123 / Fold change vs veh, C9orf123 / RFU, N4BP2L2 / Fold change vs veh, N4BP2L2 / RFU, ARFIP1 / Fold change vs veh, ARFIP1 / RFU, FAM179B / Fold change vs veh, FAM179B / RFU, BCL10 / Fold change vs veh, BCL10 / RFU, UHRF1BP1L / Fold change vs veh, UHRF1BP1L / RFU, BET1 / Fold change vs veh, BET1 / RFU, CNOT2 / Fold change vs veh, CNOT2 / RFU, ZNF268 / Fold change vs veh, ZNF268 / Fold change vs veh, ZNF507 / RFU, DGCR2 / Fold change vs veh, DGCR2 / RFU, WDSUB1 / Fold change vs veh, WDSUB1 / Fold change vs veh, HSP90B1 /// MIR3652 / RFU, ADSS / Fold change vs veh, ADSS / RFU, GK / Fold change vs veh, GK / RFU, ZNF148 / Fold change vs veh, ZNF148 / RFU, TAF9 / Fold change vs veh, TAF9 / RFU, SLC1A5 / Fold change vs veh, SLC1A5 / RFU, SLMO2 / Fold change vs veh, SLMO2 / RFU, ABCC4 / Fold change vs veh, ABCC4 / RFU, LOC101060439 /// RAP1B / Fold change vs veh, LOC101060439 /// RAP1B / RFU, RFX7 / Fold change vs veh, RFX7 / RFU, GTPBP10 / Fold change vs veh, GTPBP10 / RFU, CNEP1R1 / Fold change vs veh, CNEP1R1 / RFU, BIVM-ERCC5 /// ERCC5 / Fold change vs veh, BIVM-ERCC5 /// ERCC5 / RFU, ILF3 / Fold change vs veh, ILF3 / RFU 11762660_at / Fold change /veh 11762660_at / RFU VCAN (11757783_s_at) / Fold change /veh VCAN (11757783_s_at) / RFU DDX43 (11728927_at) / Fold change /veh DDX43 (11728927_at) / RFU KRT8 (11758188_x_at) / Fold change /veh KRT8 (11758188_x_at) / RFU NKD1 (11759106_at) / Fold change /veh NKD1 (11759106_at) / RFU SRD5A1 (11742802_a_at) / Fold change /veh SRD5A1 (11742802_a_at) / RFU TPSAB1 /// TPSB2 (11721975_s_at) / Fold change /veh TPSAB1 /// TPSB2 (11721975_s_at) / RFU GSTM3 (11746129_a_at) / Fold change /veh GSTM3 (11746129_a_at) / RFU IL23R (11737362_x_at) / Fold change /veh IL23R (11737362_x_at) / RFU TMEM51 (11727254_a_at) / Fold change /veh TMEM51 (11727254_a_at) / RFU PIWIL2 (11732686_x_at) / Fold change /veh PIWIL2 (11732686_x_at) / RFU ORM1 (11744905_x_at) / Fold change /veh ORM1 (11744905_x_at) / RFU CCDC152 (11743942_at) / Fold change /veh CCDC152 (11743942_at) / RFU ECM1 (11717891_a_at) / Fold change /veh ECM1 (11717891_a_at) / RFU IL23R (11748794_a_at) / Fold change /veh IL23R (11748794_a_at) / RFU TNFAIP8L3 (11732012_x_at) / Fold change /veh TNFAIP8L3 (11732012_x_at) / RFU MBOAT4 (11741988_at) / Fold change /veh MBOAT4 (11741988_at) / RFU 11764193_at / Fold change /veh 11764193_at / RFU TMEM53 (11763286_at) / Fold change /veh TMEM53 (11763286_at) / RFU MAGEB2 (11727129_at) / Fold change /veh MAGEB2 (11727129_at) / RFU TMEM200A (11744735_a_at) / Fold change /veh TMEM200A (11744735_a_at) / RFU CCDC152 (11751479_a_at) / Fold change /veh CCDC152 (11751479_a_at) / RFU FAM211A (11726209_a_at) / Fold change /veh FAM211A (11726209_a_at) / RFU RGS16 (11746705_a_at) / Fold change /veh RGS16 (11746705_a_at) / RFU VCAN (11755009_s_at) / Fold change /veh VCAN (11755009_s_at) / RFU RHOB (11743442_s_at) / Fold change /veh RHOB (11743442_s_at) / RFU RGS16 (11720943_a_at) / Fold change /veh RGS16 (11720943_a_at) / RFU RGS16 (11720944_at) / Fold change /veh RGS16 (11720944_at) / RFU, VPS4B / Fold change vs veh, VPS4B / RFU, CREB1 / Fold change vs veh, CREB1 / RFU, DNAJC13 / Fold change vs veh, DNAJC13 / RFU, GNAQ / Fold change vs veh, GNAQ / RFU, CDK5R1 / Fold change vs veh, CDK5R1 / RFU, ZRANB3 / Fold change vs veh, ZRANB3 / RFU, CUL4A / Fold change vs veh, CUL4A / RFU, CCNY / Fold change vs veh, CCNY / RFU, UFL1 / Fold change vs veh, UFL1 / RFU, COG3 / Fold change vs veh, COG3 / RFU, DIAPH2 / Fold change vs veh, DIAPH2 / RFU, SKA2 / Fold change vs veh, SKA2 / RFU, AFF3 / Fold change vs veh, AFF3 / RFU, LMF1 / Fold change vs veh, LMF1 / RFU, IPO11 / Fold change vs veh, IPO11 / RFU, DFFB / Fold change vs veh, DFFB / RFU, FOXP1 / Fold change vs veh, FOXP1 / RFU, CARD8 / Fold change vs veh, CARD8 / RFU, STRN3 / Fold change vs veh, STRN3 / RFU, ADK / Fold change vs veh, ADK / RFU, RASSF2 / Fold change vs veh, RASSF2 / RFU, WIPF1 / Fold change vs veh, WIPF1 / RFU, LARP1B / Fold change vs veh, LARP1B / RFU, RASA1 / Fold change vs veh, RASA1 / RFU, RB1 / Fold change vs veh, RB1 / RFU, PPFIA1 / Fold change vs veh, PPFIA1 / RFU, MAT2A / Fold change vs veh, MAT2A / RFU, CCT5 / Fold change vs veh, CCT5 / RFU, WDR92 / Fold change vs veh, WDR92 / RFU, CUX1 / Fold change vs veh, CUX1 / RFU, TTC7A / Fold change vs veh, TTC7A / RFU, TMEM135 / Fold change vs veh, TMEM135 / RFU, DEPTOR / Fold change vs veh, DEPTOR / RFU, CPM / Fold change vs veh, CPM / RFU, DNAJB6 / Fold change vs veh, DNAJB6 / RFU, CACNA2D3 / Fold change vs veh, CACNA2D3 / RFU, DTX4 / Fold change vs veh, DTX4 / RFU, TFCP2 / Fold change vs veh, TFCP2 / RFU, GMCL1 /// GMCL1P1 / Fold change vs veh, GMCL1 /// GMCL1P1 / RFU, AEBP2 / Fold change vs veh, AEBP2 / RFU, SNHG1 /// SNORD22 /// SNORD25 /// SNORD26 /// SNORD27 /// SNORD28 /// SNORD29 /// SNORD31 / Fold change vs veh, SNHG1 /// SNORD22 /// SNORD25 /// SNORD26 /// SNORD27 /// SNORD28 /// SNORD29 /// SNORD31 / Fold change (Aza/veh), C12orf56 (ProbeSet 11735607_a_at) / Fold change (ACY-1035/veh), C12orf56 (ProbeSet 11735607_a_at) / Fold change (Aza/veh), FGFR1OP (ProbeSet 11751329_s_at) / Fold change (ACY-1035/veh), FGFR1OP (ProbeSet 11751329_s_at) / Fold change (Aza/veh), VPS36 (ProbeSet 11739960_a_at) / Fold change (ACY-1035/veh), VPS36 (ProbeSet 11739960_a_at) / RFU SYPL1 (11715823_x_at) / Fold change /veh SYPL1 (11715823_x_at) / RFU IGFBP7 (11715501_s_at) / Fold change /veh IGFBP7 (11715501_s_at) / RFU REEP3 (11722064_at) / Fold change /veh REEP3 (11722064_at) / RFU IGLL1 (11728026_x_at) / Fold change /veh IGLL1 (11728026_x_at): dose or concentration left out as unconfirmed
Conditions: MV-4-11 cells, 48 hours

Structure (SMILES): Nc1ccc(-c2cccs2)cc1NC(=O)c1ccc2c(c1)cc(C1CC1)n2CCN1CCOCC1 [ACY-1035]
- RFU JSRP1 (11732532_at): 43.67 RFU
